Reference: patent publication US4356183A, “Antihypertensive 4-thiazolidinecarboxylic acids (pyridyl derivatives)” (Santen Pharmaceutical Co., Ltd., priority 1978, dated 1982)
Read-outs that look alike come from different tables or passages of the source.

What was measured:
[1] = system: contractile response of isolated guinea pig ileum to angiotensin I; assay: Inhibition of contractile response of isolated guinea pig ileum to angiotensin I; assay type: cell-based; details: Cavia porcellus, angiotensin I 0.1 μg/ml; compound added 5 min before; 30° C.; read-out: Angiotensin I IC50 (50% inhibition of angiotensin I activity inducing the contraction of guinea pig ileum)
From the text: As the method of measurement of angiotensin I-converting enzyme activity, bioassay for the contractile response of isolated smooth muscle or the pressor response of normal animals and biochemical assay for the enzyme isolated from lung or other organs of animals are known. The former is found more advantageous than the latter for the examination of the convertion of angiotensin I to angiotensin II in vivo.
In the present study, therefore, we adopted the bioassay for contractile response of isolated guinea pig ileum to angiotensin I.
(§1) Measurement of inhibitory activity of angiotensin I-converting enzyme
(§2) Isolated guinea pig ileum was suspended in the organ bath containing 20 ml of Tyrode's solution of 30° C. gassed with 95% O2 +5% CO2. The contraction induced by the addition of angiotensin I (0.1 μg/ml) at intervals of 10 minutes was recorded on a recticorder (Nihon Koden) for 90 seconds using FD pick up (ST-1T-H, Nihon Koden).
(§3) The test compounds were added to the bath 5 minutes before the addition of angiotensin I.
The inhibitory activity of angiotensin I-converting enzyme was calculated by the following formula. [formula] A: contractile intensity of angiotensin I before addition of the compound B: contractile intensity of angiotensin I after addition of the compound

[2] = system: contractile response to bradykinin (isolated guinea pig ileum); assay: Augmentation of contractile response of isolated guinea pig ileum to bradykinin; assay type: cell-based; details: Cavia porcellus, bradykinin 0.005 μg/ml; compound added 5 min before; 30° C.; read-out: Bradykinin AC50 (50% augmentation of bradykinin activity inducing the contraction of guinea pig ileum)
Protocol: as §2, §3
From the fact that kininase II, which destroys bradykinin having contractive action on isolated guinea pig ileum, is thought to be identical with angiotensin I-converting enzyme, augmentation of the contractile response to bradykinin by test compounds was examined by using bradykinin (0.005 μg/ml) in place of angiotensin I according to the above mentioned method.

[3] = target: T1, angiotensin I-converting enzyme (Oryctolagus cuniculus, UniProt P12822); assay: Inhibition of angiotensin I-converting enzyme by spectrophotometry (HHL substrate); assay type: biochemical; details: enzyme from rabbit lung; 5 mM HHL; pH 8.3; 37° C., 30 min
T1 construct: angiotensin I-converting enzyme extracted from rabbit lung; from tissue; host or cells: rabbit lung
T1 sequence (P12822 34-1310): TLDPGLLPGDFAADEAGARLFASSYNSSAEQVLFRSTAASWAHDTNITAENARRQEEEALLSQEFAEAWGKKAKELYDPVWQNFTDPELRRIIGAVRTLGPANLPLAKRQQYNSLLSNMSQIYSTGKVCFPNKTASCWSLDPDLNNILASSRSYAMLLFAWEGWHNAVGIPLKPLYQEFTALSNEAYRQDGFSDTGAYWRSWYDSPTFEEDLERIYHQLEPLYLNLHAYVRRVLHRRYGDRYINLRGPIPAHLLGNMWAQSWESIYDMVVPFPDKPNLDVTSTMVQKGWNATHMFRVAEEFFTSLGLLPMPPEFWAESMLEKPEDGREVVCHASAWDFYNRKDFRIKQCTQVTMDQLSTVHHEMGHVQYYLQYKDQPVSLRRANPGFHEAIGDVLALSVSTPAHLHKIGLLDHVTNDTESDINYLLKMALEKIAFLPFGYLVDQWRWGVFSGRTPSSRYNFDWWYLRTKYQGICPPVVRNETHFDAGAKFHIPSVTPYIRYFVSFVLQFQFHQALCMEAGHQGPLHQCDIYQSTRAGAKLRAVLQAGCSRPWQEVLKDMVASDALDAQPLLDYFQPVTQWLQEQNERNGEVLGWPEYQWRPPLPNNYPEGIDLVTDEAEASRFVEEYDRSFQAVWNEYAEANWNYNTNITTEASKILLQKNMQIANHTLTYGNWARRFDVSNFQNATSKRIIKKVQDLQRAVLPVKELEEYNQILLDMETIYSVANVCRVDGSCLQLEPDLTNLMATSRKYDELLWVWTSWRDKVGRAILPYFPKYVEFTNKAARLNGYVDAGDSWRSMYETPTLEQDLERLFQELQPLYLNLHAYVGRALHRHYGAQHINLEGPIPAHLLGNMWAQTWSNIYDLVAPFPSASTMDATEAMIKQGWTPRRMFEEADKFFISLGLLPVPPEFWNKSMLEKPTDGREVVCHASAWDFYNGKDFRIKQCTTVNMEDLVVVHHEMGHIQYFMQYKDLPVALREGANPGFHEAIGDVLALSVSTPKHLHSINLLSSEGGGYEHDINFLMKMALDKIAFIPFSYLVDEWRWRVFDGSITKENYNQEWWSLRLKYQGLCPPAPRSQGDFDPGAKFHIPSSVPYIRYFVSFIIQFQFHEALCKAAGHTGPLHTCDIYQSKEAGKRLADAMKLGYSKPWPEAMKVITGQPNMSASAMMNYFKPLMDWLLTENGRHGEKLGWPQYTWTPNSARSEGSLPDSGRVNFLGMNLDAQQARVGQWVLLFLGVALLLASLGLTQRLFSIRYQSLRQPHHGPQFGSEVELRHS
Protocol: That is, the absorbance of hippuric acid was measured, which is liberated by incubating hippuryl-L-histidyl-L-leucine (HHL) as substrate in the presence of angiotensin I-converting enzyme extracted from rabbit lung.
as §1
The reaction mixture is as follows:
100 mM phosphate buffer (pH 8.3)
10^-3 ~10^-9 M enzyme inhibitor
0.25 ml of the above mixture was incubated at 37° C. for 30 minutes and the reaction was stopped by adding 0.25 ml of 1 N hydrochloric acid. To this solution, 1.5 ml of ethyl acetate was added in order to extract hippuric acid. 1.0 ml of ethyl acetate layer was collected and evaporated to dryness, and the residue obtained was dissolved in 1.0 ml of water.
The inhibitory activity of angiotensin I-converting enzyme was calculated by the following formula: [formula]

Acute toxicity test = details: rat, in vivo
Protocol: The male ddy-SLC strain […] (4 weeks of age, weighing 19-21 g) were placed in a breeding room of constant temperature and humidity (23°±1° C., 55±5%) and fed freely pellet diet (CE-2, Clea Japan Inc.) and water ad. libitum for a week. The rats showing the normal growth were selected for the experiment.
Test compounds are suspended in 0.5% tragacanth solution (p.o.) or dissolved in distilled water (i.v., i.p.), and administered in a dose of 0.5 ml/20 g body weight.

[4] = system: pressor response to angiotensin I; assay: Inhibition of pressor response to angiotensin I in rats after oral administration; assay type: in vivo, rat (male Wistar); details: angiotensin I 300 ng/kg i.v.
Protocol: Male Wistar strain rats weighing about 200-300 g were used.
Under ether anesthesia, polyethylene cannulae are inserted into carotid arthery and jugular vein. The cannula to carotid artery is connected to an electric transducer, while the cannula to jugular vein is connected to an apparatus for continuous infusion. After the complete recovery from anesthesia, angiotensin I is infused intravenously in a dose of 300 ng/kg by the apparatus for continuous infusion, and the pressor response is recorded by polygraph (Nihon Koden, RM-150).
The compounds of this invention suspended in 0.5% tragacanth solution are administered orally in a dose of 0.3 ml per 100 g of body weight, and the pressor response to angiotensin I infused intravenously is measured with time.
The inhibitory activity of the compounds against angiotensin I-converting enzyme is expressed as the percent inhibition of pressor response to angiotensin I.

| SMILES | IC50 [1] [nM] | AC50 [2] [nM] | IC50 [3] [nM] | LD50 (Acute toxicity test; ip, dissolved in distilled water, pH 7, read-out: LD i.p.) [mg/kg] | Inhibition (%) of pressor response to angiotensin I, 5 min ([4]; 5 min, dose: 3, 45, 49 1.8 mg/kg, 4, 46 1.3, 50 1.4, 76 2.0, 77 1.5) [%] | Inhibition (%) of pressor response to angiotensin I, 15 min ([4]; 15 min, dose: 3, 45, 49 1.8 mg/kg, 4, 46 1.3, 50 1.4, 76 2.0, 77 1.5) [%] | Inhibition (%) of pressor response to angiotensin I, 25 min ([4]; 25 min, dose: 3, 45, 49 1.8 mg/kg, 4, 46 1.3, 50 1.4, 76 2.0, 77 1.5) [%] | Inhibition (%) of pressor response to angiotensin I, 35 min ([4]; 35 min, dose: 3, 45, 49 1.8 mg/kg, 4, 46 1.3, 50 1.4, 76 2.0, 77 1.5) [%] | Inhibition (%) of pressor response to angiotensin I, 45 min ([4]; 45 min, dose: 3, 45, 49 1.8 mg/kg, 4, 46 1.3, 50 1.4, 76 2.0, 77 1.5) [%] | Inhibition (%) of pressor response to angiotensin I, 55 min ([4]; 55 min, dose: 3, 45, 49 1.8 mg/kg, 4, 46 1.3, 50 1.4, 76 2.0, 77 1.5) [%] | Inhibition (%) of pressor response to angiotensin I, 65 min ([4]; 65 min, dose: 3, 45, 49 1.8 mg/kg, 4, 46 1.3, 50 1.4, 76 2.0, 77 1.5) [%] | Inhibition (%) of pressor response to angiotensin I, 75 min ([4]; 75 min, dose: 3, 45, 49 1.8 mg/kg, 4, 46 1.3, 50 1.4, 76 2.0, 77 1.5) [%] | Inhibition (%) of pressor response to angiotensin I, 85 min ([4]; 85 min, dose: 3, 45, 49 1.8 mg/kg, 4, 46 1.3, 50 1.4, 76 2.0, 77 1.5) [%] | Inhibition (%) of pressor response to angiotensin I, 95 min ([4]; 95 min, dose: 45, 49 1.8 mg/kg, 4, 46 1.3, 50 1.4, 76 2.0, 77 1.5) [%] | Inhibition (%) of pressor response to angiotensin I, 105 min ([4]; 105 min, dose: 45, 49 1.8 mg/kg, 46 1.3, 50 1.4, 76 2.0, 77 1.5) [%] | Inhibition (%) of pressor response to angiotensin I, 115 min ([4]; 115 min, dose: 45, 49 1.8 mg/kg, 46 1.3, 50 1.4, 76 2.0, 77 1.5) [%] | LD50 (Acute toxicity test; po, suspended in 0.5% tragacanth solution, read-out: LD50 p.o.) [mg/kg] |
| --- | --- | --- | --- | --- | --- | --- | --- | --- | --- | --- | --- | --- | --- | --- | --- | --- | --- |
| C[C@H](CS)C(=O)N1C(c2ccccc2)SC[C@H]1C(=O)O (stereo partly shown) [Compound 18] | 190 | 3.1 | 60 | > 1000 |  |  |  |  |  |  |  |  |  |  |  |  |  |
| O=C(O)[C@@H]1CSC(c2ccccc2O)N1C(=O)CCS (stereo partly drawn) [Compound 46, (4R)-2-(2-Hydroxyphenyl)-3-(3-mercaptopropanoyl)-4-thiazolidinecarboxylic acid] | 19 | 0.3 |  |  | 53.3 | 62.9 | 64.7 | 63.7 | 54.0 | 49.3 | 47.7 | 38.8 | 34.0 | 30.0 | 30.0 | 31.0 | > 10000 |
